Tested on: asthmatic patients
Test: sGaw after inhaled dry powder in asthmatic patients, single blind study (Examples 5, 6)
Assay type: in vivo, human
Details: dry powder 1 mg inhaled
Description: (§1) To test this theory, asthmatic patients are enrolled in a dose escalating single blind study. On arrival to the clinic, subjects are allowed to rest for 20 minutes before baseline measurements of FEV1 (six recordings) and sGaw (five recordings) are made. Subjects receive a dry powder dispenser loaded with a dose of 2 mg theophylline or a dry powder carrier. […] After each inhalation, measurements of sGaw are made at 1, 3, 5, 10, 15, 20, 25, and 30 minutes.
On completion of the last recording, subjects inhale a 200 μg dose of salbutamol from a metered inhaler and a further measurement of sGaw is made after 15 minutes. Subjects are also monitored for coughing and are questioned about the taste of the drug.
as §1, with “Asthmatic patients” for “To test this theory, asthmatic patients”, “of 1” for “of 2”, “mg IBMX formulated as a dry powder” for “mg theophylline”
On completion of the last recording, subjects inhale a 200 μg dose of salbutamol from a metered inhaler and a further measurement of sGaw mad after 15 minutes. Subjects are also be monitored for coughing and are questioned about the taste of the drug.

Which results are given for `CC(C)Cn1c(=O)n(C)c(=O)c2[nH]cnc21` [IBMX, 3-isobutyl-1-methylxanthine]?
increase in sGaw versus 200 μg salbutamol: comparable with that produced by salbutamol; time until sGaw baseline is reached: one and a half hours; sGaw above baseline measurement (after 30 minutes): 20%
